Results on 5 compounds are retold here after US7531533B2, “6-Membered heterocyclic compound and use thereof” (Asahi Kasei Pharma Corporation, priority 2005, dated 2009).

In one data set the target is T1, human EP2 receptor (Homo sapiens, UniProt P43116).
T1 construct: expressed in transfected cells
Put plainly: [3H]PGE2 receptor binding test, human EP2 receptor expressing HEK293 membrane fraction. The settings on record: [3H]PGE2 1 nM. As for the experimental part: (§1) Receptor Binding Test by Using Human EP Receptor Expressing Cells
(§2) In order to evaluate the selectivity for each EP receptor subtype, which is considered to greatly influence on the side reaction of drugs, [^3H]PGE2 binding inhibitory activities of test compounds were measured in HEK293 in which human EP1, human EP2, human EP3, or human EP4 receptor was stably expressed.
(§3) As a result of searching for prostaglandin E receptors using Refseq Database, the gene information of human EP1 (NM_000955), human EP2 (NM_000956), human EP3 (NM_198719), and human EP4 (NM_000958) was obtained. […] After the reaction, the reaction mixture was subjected to suction filtration under reduced pressure so that [^3H]PGE2 binding to the membrane fraction was trapped on Unifilter Plate GF/C (produced by Packard), and binding radioactivity was measured by using a liquid scintillator.
(§4) The Kd value was obtained by Scatchard plot. […] The [^3H]PGE2 binding inhibitory activity of a test compound was measured by adding [^3H]PGE2 (1 nM) and a test compound at various concentrations. […]
(§5) Further, HEK293 in which each of human EP1, human EP2, and human EP3 receptors was stably expressed was established, and a membrane fraction was prepared. […] The ratios of Ki value for human EP4 to Ki values for human EP1, human EP2, and human EP3 were calculated. […]

The target of another data set is T2, human EP1 receptor (Homo sapiens, UniProt P34995).
T2 construct: expressed in transfected cells
T2 sequence (P34995 1-402): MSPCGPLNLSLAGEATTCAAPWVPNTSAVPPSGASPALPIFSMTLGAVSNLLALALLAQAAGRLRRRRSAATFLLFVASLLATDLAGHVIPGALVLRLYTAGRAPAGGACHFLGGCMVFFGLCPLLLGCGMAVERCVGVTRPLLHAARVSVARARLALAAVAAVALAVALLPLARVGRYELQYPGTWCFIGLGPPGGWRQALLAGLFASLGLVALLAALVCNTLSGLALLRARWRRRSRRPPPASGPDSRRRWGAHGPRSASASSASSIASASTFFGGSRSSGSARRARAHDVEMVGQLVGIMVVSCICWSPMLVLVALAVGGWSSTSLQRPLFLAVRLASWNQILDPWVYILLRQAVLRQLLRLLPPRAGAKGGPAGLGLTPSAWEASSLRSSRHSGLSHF
Briefly: [3H]PGE2 receptor binding test, human EP1 receptor expressing HEK293 membrane fraction. Particulars: [3H]PGE2 1 nM. As for the experimental part: as §1, §2, §3, §4, §5

Another data set has as its target T3, human EP3 receptor (Homo sapiens, UniProt P43115).
T3 construct: expressed in transfected cells
T3 sequence (P43115 1-390): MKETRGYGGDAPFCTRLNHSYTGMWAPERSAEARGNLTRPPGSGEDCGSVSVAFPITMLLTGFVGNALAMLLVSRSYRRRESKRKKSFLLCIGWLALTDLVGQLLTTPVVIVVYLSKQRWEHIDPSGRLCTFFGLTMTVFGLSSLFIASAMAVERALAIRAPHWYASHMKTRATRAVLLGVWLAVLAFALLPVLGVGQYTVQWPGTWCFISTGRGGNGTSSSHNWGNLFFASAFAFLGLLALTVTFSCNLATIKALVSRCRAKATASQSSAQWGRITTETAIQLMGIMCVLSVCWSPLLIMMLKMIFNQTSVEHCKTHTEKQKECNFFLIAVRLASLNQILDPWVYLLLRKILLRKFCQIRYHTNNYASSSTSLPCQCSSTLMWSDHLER
Put plainly: [3H]PGE2 receptor binding test, human EP3 receptor expressing HEK293 membrane fraction. Particulars: [3H]PGE2 1 nM. As for the experimental part:
as §1, §2, §3, §4, §5

Data set [1] relates to dextran sulfate-induced inflammatory intestinal disease model mice. Briefly: Action in dextran sulfate-induced inflammatory intestinal disease model mice. Format: in vivo, mouse. Particulars: 7% DSS drinking water 10 days; 0.1-100 mg/kg every day for 10 days. From the text: Action in Dextran Sulfate-Induced Inflammatory Intestinal Disease Model Mice
8-Week old female C57BL/6J mice were allowed to take 7% dextran sulfate (henceforth abbreviated as “DSS”) solution as drinking water ad libitum for 10 days to prepare inflammatory intestinal disease model. From the start of DSS intake, Example Compound Nos. IAH-H001a, IAH-H010 and IAH-H057 each dissolved in a suitable solvent (20 to 50% PEG 400 or 15% cyclodextrin) in the same manner as in Formulation Example 1 were given at appropriate doses (0.1 mg/kg, 1 mg/kg, 10 mg/kg, or 100 mg/kg) every day for 10 days (henceforth referred to as “medicament-treated groups”). Further, the solvent used for dissolving the compounds of the present invention was solely given to the mice made to take DSS (henceforth referred to as “solvent group”), and the solvent used for dissolving the compounds of the present invention was solely given every day to the mice allowed to take distilled water not containing DSS as drinking water ad libitum (henceforth referred to as “normal group”). The number of mice in each group was 10. After the start of intake of drinking water, body weight and clinical score were measured every other day. […] The mice were sacrificed 10 days after the start of intake of DSS containing water, and weights of the intestinal tracts of the large intestines were measured.

The subject of a further data set is crab-eating monkeys. Put plainly: Intraocular pressure lowering action in crab-eating monkeys. Format: in vivo, crab-eating monkey. Particulars: 50 μl instilled, measured over 6 hours, 3 monkeys. The procedure: Intraocular Pressure Lowering Action
Male crab-eating monkeys with a body weight of 5 to 7.5 kg (5- to 10-year old) were used for the experiment. Example Compound Nos. IAH-H001a, IAH-H010, and IAH-H057 were each dissolved at various concentrations in water or physiological saline containing sodium hydroxide in an amount of the same equivalence as each compound. The intraocular pressure was measured immediately before a treatment with a test compound, then 50 μl of a solution containing each test compound was instilled, and the intraocular pressure was measured over time for 6 hours after the instillation. The intraocular pressure was measured under ketamine (5 to 10 mg/kg, intramuscular injection) anesthetization by using a pneumatic applanation tonometer. Each test compound was used in 3 monkeys, and the intraocular pressures before and after the instillation were compared.

The target in a further data set is T4, human EP4 receptor (Homo sapiens, UniProt P35408).
T4 construct: expressed in transfected cells
Put plainly: Agonist activity measurement (cAMP production) using human EP4 receptor expressing HEK293 cells. The data set is classed as cell-based. The settings on record: test compound concentration of 10 μM, HEK293 stably expressing human EP4. The procedure:
Agonist Activity Measurement Using Human EP4 Receptor Expressing Cells
In order to investigate EP4 receptor agonist activity of the compounds of the present invention, cAMP production was measured by using HEK293 in which the human EP4 receptor was stably expressed.
As a result of searching for prostaglandin E receptors using Refseq Database, the gene information of human EP4 (NM_000958) receptor was obtained. On the basis of the sequence information, the human EP4 receptor gene was cloned by PCR using human cDNA as a template in a conventional manner to establish HEK293 in which the human EP4 receptor was stably expressed. These cells were inoculated on a 96-well poly-D-lysine coated plate at a density of 2×10^4 cells/well, and cultured for 1 day. The medium in the wells was removed by aspiration, 80 μL of Dulbecco's modified Eagle's medium was added to each well, and the cells were incubated at 37° C. for 15 minutes. Then, 20 μL of an assay medium (Dulbecco's modified Eagle's medium containing 100 mM HEPES and 1 mM IBMX) containing PGE2 or a test compound (at 5-fold concentration of the final concentration) was added to start the reaction, and the reaction was allowed at 37° C. for 30 minutes. Then, the medium was removed by aspiration, and the reaction was terminated by adding 100 μL of Assay/Lysis Buffer included in cAMP Screen Kit (produced by Applied Biosystems). Then, the cells were incubated at 37° C. for 30 minutes, and used as a sample for cAMP quantification. By using this sample, amount of cAMP in the sample was quantified according to the method attached to cAMP Screen Kit.
For orientation: cAMP levels reflect the balance of adenylyl cyclase and phosphodiesterase activity.

A further data set deals with rat bone marrow cells. Put plainly: Bone nodule formation action in rat bone marrow cells. The data set is classed as cell-based. As for the experimental part:
Bone Nodule Formation Action in Rat Bone Marrow Cells
In order to investigate osteogenesis promoting action of the compounds of the present invention, the compounds were made to act on cultured rat bone marrow cells, and the number of formed bone nodule was counted.
As rat bone marrow cells, mesenchymal cells (KEM100) derived from rat bone marrow purchased from Dainippon Pharmaceutical were used. The cells stored in liquid nitrogen were thawed at 37° C., then suspended in a phosphate-buffered saline, and centrifuged at 900 rpm for 5 minutes. The supernatant was removed, and the cells were suspended again in a MEM culture medium (produced by GIBCO) containing 10% fetal bovine serum (produced by GIBCO). After the number of cells was counted, the cells were inoculated on a 12-well plate (produced by IWAKI) at a cell density of 1×10^4 cells/cm^2, and cultured at 37° C. in a 5% CO2 incubator. From the next day of the inoculation, the medium was exchanged with the α MEM culture medium containing 10% fetal bovine serum every 2 or 3 days, and the cells were proliferated to the confluent state. The addition of the compound was conducted from the next day after the cells reached confluent. […]

T4 sequence (P35408 whole entry): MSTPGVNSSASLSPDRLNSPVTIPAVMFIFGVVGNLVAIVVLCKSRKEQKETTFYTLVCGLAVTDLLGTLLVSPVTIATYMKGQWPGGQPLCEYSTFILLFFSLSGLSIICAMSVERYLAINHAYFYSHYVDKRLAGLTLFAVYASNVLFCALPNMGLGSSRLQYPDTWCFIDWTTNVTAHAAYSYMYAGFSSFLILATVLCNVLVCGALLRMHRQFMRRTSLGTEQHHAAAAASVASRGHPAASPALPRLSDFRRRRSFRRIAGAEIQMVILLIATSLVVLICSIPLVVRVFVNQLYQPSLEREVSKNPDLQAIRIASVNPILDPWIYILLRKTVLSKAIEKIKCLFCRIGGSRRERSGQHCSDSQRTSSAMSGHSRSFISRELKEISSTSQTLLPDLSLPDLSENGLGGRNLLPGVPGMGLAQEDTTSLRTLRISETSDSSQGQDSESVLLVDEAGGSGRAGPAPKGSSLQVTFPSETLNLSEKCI
T1 sequence (P43116 whole entry): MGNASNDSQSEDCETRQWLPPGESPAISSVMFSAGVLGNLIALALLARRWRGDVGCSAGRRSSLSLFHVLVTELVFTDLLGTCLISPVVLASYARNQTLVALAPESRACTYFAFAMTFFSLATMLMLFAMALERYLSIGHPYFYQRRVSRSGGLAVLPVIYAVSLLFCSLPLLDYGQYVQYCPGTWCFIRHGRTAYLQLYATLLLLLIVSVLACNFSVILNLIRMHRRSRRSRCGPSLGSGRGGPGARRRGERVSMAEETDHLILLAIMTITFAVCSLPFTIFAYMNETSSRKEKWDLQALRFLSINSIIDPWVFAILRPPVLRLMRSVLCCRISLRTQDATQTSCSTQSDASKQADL

Turning to `O=C(O)c1ccc(CCN2C(=O)CCCN2CCC(O)Cc2cccc(C(F)(F)F)c2)cc1` (stereo not drawn) [IAH-H001a, 4-[2-(2-{3-hydroxy-4-[3-(trifluoromethyl)-phenyl]butyl}-6-oxotetrahydropyridazin-1-yl)ethyl]benzoic acid], the “ratio of Ki values human EP2/human EP4” value at human EP2 receptor came out at 15000. Further, on human EP1 receptor, the “ratio of Ki values human EP1/human EP4” value is given as not below 80000. Moreover, the “ratio of Ki values human EP3/human EP4” value at human EP3 receptor was not below 45000. Besides, in data set [1], the “diarrhea score and bloody stool score compared with the solvent group” value is “significantly improved and suppressed”; the “reduction of the large intestine weight compared with the solvent group” value is on record as “significantly suppressed”. In addition, the “intraocular pressure after instillation compared with before instillation” value with crab-eating monkeys is on record as “significant intraocular pressure lowering action”.
For the compound `O=C(O)c1ccc(CCN2C(=O)CCCN2CCC(O)Cc2cccc(C(F)(F)F)c2)cc1` (stereo not drawn) [IAH-H001, 4-[2-(2-{3-hydroxy-4-[3-(trifluoromethyl)phenyl]butyl}-6-oxotetrahydropyridazin-1-yl)ethyl]benzoic acid], the “increase of cAMP” value on human EP4 receptor is recorded as “Increase of cAMP was observed”. For the same compound, the “bone nodule formation promoting action (number of mineralized bone nodule formed)” value in the data set on rat bone marrow cells (concentration ranging from 1 nM to 10 μM, von Kossa staining 21 to 28 days after addition) was “exhibited an bone nodule formation promoting action in a dose-dependent manner”. The cytotoxicity entry in the data set with rat bone marrow cells (rat bone marrow cells, 1 nM to 10 μM) is recorded as “no cytotoxicity”.
In the case of `O=C(O)c1cccc(CCCN2C(=O)CCCN2CCC(O)Cc2cccc(C(F)(F)F)c2)c1` (stereo not drawn) [IFH-H001, 3-[3-(2-{3-hydroxy-4-[3-(trifluoromethyl)phenyl]butyl}-6-oxo-tetrahydropyridazin-1-yl)propyl]benzoic acid], the “increase of cAMP” value at human EP4 receptor is reported as “Increase of cAMP was observed”.
For the compound `O=C(O)c1ccc(CCN2C(=O)CCCN2CCC(O)c2cccc(-c3ccc(F)cc3)c2)cc1` (stereo not drawn) [IAH-H004, 4-[2-(2-{3-hydroxy-3-[3-(4-fluorophenyl)phenyl]propyl}-6-oxotetrahydropyridazin-1-yl)ethyl]benzoic acid], the “increase of cAMP” value at human EP4 receptor was “Increase of cAMP was observed”.
For `O=C(O)c1ccc(OCCN2C(=O)CCCN2CCC(O)Cc2cccc(C(F)(F)F)c2)cc1` (stereo not drawn) [IEH-H001, 4-[2-(2-{3-hydroxy-4-[3-(trifluoromethyl)phenyl]butyl}-6-oxo-tetrahydropyridazin-1-yl)ethyloxy]benzoic acid], on human EP4 receptor, the “increase of cAMP” value is given as “Increase of cAMP was observed”.
